From a melting point compilation (Tetko et al.; mined from patent text by program, amines drawn as free bases though some values may be those of a salt)

Row | SMILES | melting point [°C]
1 | O=Cc1c2ccccc2cc2ccc(Cl)cc12 | 148 to 150
2 | CC(=O)Oc1ccc2cccc(OCC(=O)c3ccccc3)c2n1 | 141 to 142
3 | CNC(=O)N(C)C(=O)Nc1ccccn1 | 112 to 115
4 | NNc1ccc(-c2cccc(Cl)c2)nn1 | 173 to 174
5 | CC(C)(C(N)=O)c1ccc2nc(-c3ccncc3)[nH]c2c1 | 274 to 276
6 | c1cncc(CC2CCN(CC34CC(c5ccccc53)c3ccccc34)CC2)c1 | 183 to 185
7 | CCC(=O)NS(=O)(=O)c1cccc(-c2cccc(-c3cc(-c4ccc(C(F)(F)F)cc4)cc(C)n3)n2)c1 | 173
8 | Cc1[nH]c(-c2ccccc2)c2c1C(c1ccccc1)=NCC(=O)N2 | 310 to 312
9 | CC(C)(C(=O)O)c1ccc(Br)c([N+](=O)[O-])c1 | 167 to 171
10 | Cc1ccc(CC2CCC(C)(C)C2(O)Cn2cncn2)cc1 (configuration not stated) | 118 to 120
11 | C/C=C/C(=O)NC(=O)OC(C)(C)C | 138 to 139
12 | NS(=O)(=O)c1ccccc1Cc1nnc(S)s1 | 173 to 197
13 | N#Cc1cnc2cc(Br)sc2c1Cl | 190 to 191
14 | CS(=O)(=O)Nc1ncc(SCc2ccccc2)s1 | 159 to 162
15 | Cc1ccc(NC(=O)NN2CCN(CCc3c[nH]c4ccccc34)CC2)cc1 | 201 to 203
16 | Cc1nn(C2CCCC2C)c(N)c1C#N (configuration not stated) | 158 to 159
17 | COC(=O)C(Oc1ccc(Cl)cc1)c1ccc(Sc2ccc(Cl)cc2)cc1 (configuration not stated) | 90.5 to 94.5
18 | c1ccc(COc2ccc(-c3cscn3)cc2)cc1 | 109 to 110
19 | CSC(=C[N+](=O)[O-])NCCSCc1ccc(CN(C)C)o1 | 71
20 | CP(C)(=O)COC(=O)c1cncn1C(c1ccccc1)c1ccccc1 | 174
21 | CCCCCNC1=CC(=O)C(=O)c2ccccc21 | > 215
22 | CNC(=S)Nc1ccccc1 | 113

Row | SMILES | melting point [°C]
23 | Clc1ccc(OC2CCN(CCc3c[nH]c4ccccc34)CC2)cc1 | 132 to 133
24 | COc1ccc(-n2cnc3ccc(-c4nnc(SC)o4)cc32)cc1 | 187 to 188
25 | COCc1cc(C(=O)CBr)on1 | 53 to 54
26 | FC(F)(F)c1c(CNC2Cc3ccccc3C2)ccn2c(CC3CC3)nnc12 | > 300
27 | Cc1cc(C)n(-c2nc(Nc3ccccn3)c3ccccc3n2)n1 | 126 to 127
28 | COC1Nc2c(OC(C)=O)cccc2C(=O)N2CCCC12 (configuration not stated) | 147 to 150
29 | CCN(CC)c1nc(Cl)nc2ccccc12 | 68 to 70
30 | C=CCc1cc(Nc2ccn(-c3ccccc3)n2)cc(CC=C)c1O | 87 to 88
31 | c1ccc(C2CCc3ccccc3S2)cc1 (configuration not stated) | 45 to 49
32 | O=C1Nc2ccccc2C12COc1cc3c(cc12)OCCO3 (configuration not stated) | > 250
33 | C=CCOc1cc(C=CC(=O)O)ccc1OC(C)=O | 154 to 155
34 | O=[N+]([O-])C1=C2N(CC3CCOC3)CCN2C2CCCC1O2 (configuration not stated) | 115 to 117
35 | COc1ccccc1OC(=O)CNC(=O)C(C)SC(=O)c1cccs1 (configuration not stated) | 90.5 to 92
36 | FC(F)(F)c1n[nH]c(-c2nc3ccccc3[nH]2)n1 | 247
37 | COC(=O)c1nc(-c2ccc(Cl)cc2)nc(NCc2ccco2)c1Cl | 132 to 134
38 | Cc1nc2cc(O)c(C)cc2o1 | 198 to 200
39 | CS(=O)c1c(C(=O)c2cnoc2C2CC2)ccc(Cl)c1Cl (configuration not stated) | 110 to 112
40 | C(=C\C1CCCCC1)/c1nc(COc2ccc(CCCn3ccnc3)cc2)co1 | 62 to 63
41 | COCc1nc(S)nc(O)c1OC | 187 to 189
42 | NC(=S)c1ccc(CC(NC(=O)OCc2ccccc2)C(=O)NCC(=O)NCCC(=O)OCc2ccccc2)cc1 (racemic) | 150 to 151
43 | CCOC1=CC2=CCC3C4CC(C)(C)C(=O)C4(C)CCC3C2(C)CC1 (configuration not stated) | 133 to 137

Now from value to compound:

Row | melting point [°C] | SMILES
44 | 186 to 188 | CN(C)C1CCN(c2nc(N3CCOCC3)c3ncnc(OCc4ccccc4)c3n2)CC1
45 | 187 to 190 | Cn1c(-c2ccc(Cl)cc2)cc(=O)c(C(=O)O)c1-c1ccc(Cl)cc1
46 | > 300 | COc1cc(CNC(C)=O)c(Br)cc1O
47 | 236 to 237 | CC(C)n1nc(-c2cnc(N)nc2-c2cccc(Cl)c2)ccc1=O
48 | 115 | CC(SC1COC(c2ccc(C(=O)Nc3ccc(C#N)c(Cl)c3)cc2)OC1)C(O)(Cn1cncn1)c1ccc(F)cc1F (configuration not stated)
49 | 229 to 230 | CCCCc1nc2c(N)nc3cc(-c4ccsc4)ccc3c2n1CC(C)C
50 | 136 to 139 | COc1cc(C)c2c(c1O)CC(C)(c1ccccc1)C2=O (configuration not stated)
51 | 125 to 126 | CCCCCN1C(=O)C(NC(=O)c2ccc(Cl)c(Cl)c2)c2ccccc21 (configuration not stated)
52 | 202 | CC(=O)N1Cc2c(-c3nc(C4CC4)no3)ncn2-c2ccccc21
53 | 294 to 295 | CC1Oc2cc(C3=NNC(=O)CC3)ccc2NC1=O (configuration not stated)
54 | 188 to 190 | Cc1ccc(-c2csc(/C=C/C(=O)Nc3ccc(CN(C)C4CCOCC4)cc3)c2)cc1
55 | 217 to 218 | CN1CCN(c2n[nH]c(=S)n2C2CCc3ccccc3C2)CC1 (configuration not stated)
56 | 153 | COC(=O)C(C(=O)OC)c1cc([N+](=O)[O-])ccc1C(=O)O
57 | 245 to 247 | CCN1C(=O)C(NC(=O)C(F)(F)F)CCc2c1ccc(Nc1ncc(Cl)c(Nc3ccccc3S(=O)(=O)C(C)C)n1)c2OC (configuration not stated)
58 | 97 to 98 | Fc1ccc(-c2cncc(CN3CCN(c4ncccn4)CC3)c2)cc1
59 | 153 to 154 | N#Cn1c(SCC(=O)N2CCCc3ccccc32)nc2ccccc21
60 | 135 to 140 | COc1cc(NC(C)=O)c(Cl)cc1C(=O)N=[N+]=[N-]
61 | 101 to 102 | C=CCc1cc2ccc(=O)oc2c(OC)c1OC(C)=O
62 | 192 to 198 | Cc1c(C(F)(F)F)n(C)c(=O)n(-c2cc(N)c(C#C[Si](C)(C)C)cc2F)c1=O
63 | 155 to 159 | CC(C)(C)c1nc2cc(N3CCSCC3)c(N=C=S)cc2s1

Row | melting point [°C] | SMILES
64 | 195 | Cc1ccc(-c2nn(-c3cccc4ccccc34)c(N)c2C(N)=O)cc1
65 | 132 to 133 | CCOC(=O)/C=C/[C@H]1O[C@@H](n2cc(CC)c(=O)[nH]c2=O)C[C@@H]1OC(C)=O
66 | 113 to 115 | COc1ccc(Cl)cc1C(=O)CCC(=O)O
67 | 196 | Cc1sc2cc(C3=NCC4(CCNCC4)S3)[nH]c2c1N(C)S(=O)(=O)c1cccs1
68 | 158 | CCOC(=O)c1ccc2nc(CC3CCN(c4ccc(Cl)nn4)CC3)sc2c1
69 | 160 | CCCCCCN1CCN(Cc2ccc(NC(=S)Nc3ccccc3N)cc2)C(=O)C1=O
70 | 240 to 242 | COC(=O)c1cccc(CNC(=O)C2CC2)c1C(=O)OC
71 | 207 | Cc1cc(-c2ccccc2)nc(N2CCN(c3ccc(O)cc3)CC2)c1C#N
72 | 74 to 76 | CCOC(=O)C(=CNC1CC1)C(=O)c1cc(F)c(F)c(Br)c1F
73 | 163 to 165 | CCOCc1nc2c(N)nc3c(c2n1NCCCNC(=O)C(C)C)CCCC3
74 | 205 to 207 | O=C(O)c1cc(OCc2ccccc2)c(C(=O)c2ccccc2)c([N+](=O)[O-])c1
75 | 175 to 177 | COC(=O)C1CC=C(c2c(-c3ccccc3)[nH]c3ccccc23)CC1 (configuration not stated)
76 | 159 | COc1ccc(N2CCN(n3ccnc3)CC2)cc1
77 | 78 to 80 | O=C(CCC1(C(=O)O)CCCC1)OCc1ccc([N+](=O)[O-])cc1
78 | 130 to 132 | CC(C)CN1CCN(c2cc3ccccc3c(=O)[nH]2)CC1CO (configuration not stated)
79 | 179 to 180 | CCC(=O)c1ccc2c(c1)C(C(=O)Nc1cccc(C(=O)Nc3ccccc3)c1)C(=O)N2CC (configuration not stated)
80 | 110 to 111 | CC(C)CC(C(=O)O)c1cc(OCC2CC2)c(-c2ccc(C(F)(F)F)cc2)cc1F (configuration not stated)
81 | 178 to 180 | Oc1cc(O)c2c(c1)Oc1cc(Br)ccc1CC2
82 | 179 to 180 | O=C(Nc1ccc(-n2nc(-c3cncc(Br)c3)cc2OC(F)F)cc1)c1ccncc1F
83 | 130 to 132 | CCC(C)NS(=O)(=O)c1ccc(N)c(C(=O)N2CCN(C)CC2)c1 (configuration not stated)

Row | melting point [°C] | SMILES
84 | 46 to 47 | C=CC(=O)c1cc(OC)c(OC)c(OC)c1
85 | 149 to 152 | COc1ccc(Cl)cc1-c1cccc2c1OC(CN)C2 (configuration not stated)
86 | 171 | CC1=C(c2ccc(C(=O)N3Cc4ccc(C(=O)O)n4Cc4ccccc43)cc2)CCCC1
87 | 101 to 103 | Cc1ccc(C2SC(=S)N(C(=O)NN3CCOCC3)C2C)cc1 (configuration not stated)
88 | 131 to 132 | COC(=O)c1cc(-c2ccc(OC)c(F)c2)nn(CC=Cc2ccc(Cl)cc2)c1=O
89 | 108 to 111 | CC1C(=O)Oc2cc(N3CCCCC3)c(Cl)cc21 (configuration not stated)
90 | 152 to 154 | C/C(=C\CCl)n1ncc(-c2ccc(S(N)(=O)=O)cc2)c(-c2ccc(F)cc2)c1=O
91 | 123 to 131 | CCOC(=O)c1ccc(NCC=Cc2ccccc2)cc1
92 | 128 to 130 | CCOC(=O)C1=CC(=O)CCC1S(=O)(=O)Nc1ccc(F)cc1Cl (configuration not stated)
93 | 196 to 200 | CCOC(=O)c1c2n(c3cc(N4CCN(CC(C)=O)CC4)c(F)cc3c1=O)C(C)S2 (configuration not stated)
94 | 161 | NCc1cc(Cl)c(NC(=O)CN2CCN(CCCCC(c3ccc(F)cc3)c3ccc(F)cc3)CC2C(N)=O)c(Cl)c1 (configuration not stated)
95 | 152 to 153 | CC(Br)C(C)N1C(=O)C2(OCCCO2)c2cc(S(=O)(=O)N3CCCC3)ccc21 (configuration not stated)
96 | 119 | CC(C)(C)OC(=O)C(=[N+]=[N-])C(=O)C(SCc1ccccc1)C1CC(=O)N1 (configuration not stated)
97 | 209 to 210 | C[C@H]1N(C(=O)c2ccc(OCC(F)(F)C(F)F)cc2)CC(O)O[C@@]1(Cn1cncn1)c1ccc(F)cc1F (relative stereo)
98 | 146 to 148 | COc1ccc(S(=O)(=O)C(C)(CCCCN2C(=O)c3ccccc3C2=O)C(=O)NO)cc1 (configuration not stated)
99 | 130 to 132 | CC(=O)N(C(C)=O)c1c(C#N)cnn1-c1ncc(C(F)(F)F)cc1Cl
100 | 168 to 170 | CCOC(=O)CNc1cc(Cl)nc(NCc2ccc(Cl)cc2)n1
101 | 124 to 126 | CC(C)(C)C(=O)OCOC(=O)Cn1c(=O)c2cc(Cl)ccc2n(Cc2ccc(Cl)c(Cl)c2)c1=O
102 | 110 to 112 | CCN(C(=O)OC(C)(C)C)C1CC=C(c2c[nH]c3cc(NC(=N)c4cccs4)ccc23)CC1 (configuration not stated)
